Patent US8318495B1, “Hematopoietic progenitor cell gene transduction” (Case Western Reserve University, priority 1998, dated 2012)
Where “and” joins values, the source holds several entries; their conditions need not be identical. Equal values may be shown once. Read-outs that look alike come from different tables or passages of the source.

Columns and labels:
[1] = tested on: ΔMGMT transduced hematopoietic CD34+ progenitor cells; experiment: Drug resistance: CFU survival after BG plus TMZ or BCNU, ΔMGMT transduced cells; assay type: cell-based, human; conditions: for IC50 / IC90: Homo sapiens, 10 μM BG 1 hour, then drug 2 hours
Text: CD34+ cells were transduced with MFG-ΔMGMT high titer retroviral supernatant obtained as described in Reese et al. 1996. ΔMGMT encodes a mutant form of O-^6 alkylguanine DNA alkyltransferase (ΔAGT) and contains a point mutation which renders the protein resistant to the inhibitor O^6-benzylguanine (BG). CD34+ cells transduced with ΔMGMT are resistant to the drug combinations BG and 1,3bis(2-chloroethly)-1-nitrosourea (BCNU) (Reese et al. 1996) and BG and temozolomide (TMZ) (Reese et al. 1998). The CD34+ cells were transduced as follows: pMFG-wtMGMT or pMFG-ΔMGMT and pSV2neo DNA were cotransfected into the packaging line GP+E86, followed by viral supernatant infection of the amphotropic cell line GP+envAm12 (Markowitz, D. et al. 1988) (Arthur Bank, Columbia University). To increase titer, a supernatant “ping-pong” method was used (Bodine et al. 1990).
(§1) Drug resistance conferred by ΔMGMT To evaluate drug resistance conferred by ΔMGMT, primary CFU survival at the TMZ or BCNU IC50 and IC90 in transduced or untransduced cells was compared. IC50 (or IC90) is the determination of CFU survival after exposure to TMZ or BCNU in the presence of the AGT inhibitor BG. Following a retroviral transduction period of 72-96 hours, hematopoietic CD34+ progenitor cells were pretreated for 1 hour with 10 μM BG followed by increasing concentrations of TMZ or BCNU for 2 hours. Cells were washed free of drug, plated in methylcellulose and 5 μM BG was added to maintain depletion of endogenous AGT. After culture in methylcellulose, the colonies formed were counted as either CFU-GM, BFU-E and CFU-GEMM (referred to as CFU). Individual CFU were collected from 10 independent experiments, each from a different donor.

[2] = tested on: untransduced hematopoietic CD34+ progenitor cells; experiment: Drug resistance: CFU survival after BG plus TMZ or BCNU, untransduced cells; assay type: cell-based; conditions: Homo sapiens, 10 μM BG 1 hour, then drug 2 hours
Procedure: as §1

## O=NN(CCCl)C(=O)NCCCl [BCNU, 1,3bis(2-chloroethly)-1-nitrosourea]
[1]; Dexter
  increase in the IC90 after exposure to BG: 2.5 fold
[1]; Dexter (n=2)
  average increase in the IC50 after exposure to BG: 5.6 fold
[1]; FN (TMZ n=2, BCNU n=1)
  average fold increase in the IC50 after exposure to BG: 2.8 fold
  increase in the IC90 after exposure to BG: > 10 fold
[1]; allo MSC (n=1)
  average increase in the IC50 after exposure to BG: 2 fold
  increase in the IC90 after exposure to BG: > 6 fold
[1]; stroma Allo MSC
  fold increase in ΔMGMT/untransduced CFU IC50: 5.6 fold
  fold increase in ΔMGMT/untransduced CFU IC90: >6 fold
[1]; stroma Dexter
  fold increase in ΔMGMT/untransduced CFU IC90: 2.5 fold
[1]; stroma FN
  fold increase in ΔMGMT/untransduced CFU IC50: 2.8 fold

## Cn1nnc2c(C(N)=O)ncn2c1=O [TMZ, temozolomide]
[2]; stroma Allo MSC
  IC50: 25.5 µM
  IC90: 48 µM
[2]; stroma FN
  IC90: 29 µM
[2]; stroma auto MSC
  IC50: 9.8 µM
  IC90: 29 µM
[1]; FN (TMZ n=2, BCNU n=1)
  average fold increase in the IC50 after exposure to BG: 7.7 fold
  increase in the IC90 after exposure to BG: > 8.2 fold
[1]; read-out: CFU IC50 ΔMGMT, stroma Allo MSC
  IC50: 71 µM
[1]; read-out: CFU IC50 ΔMGMT, stroma FN
  IC50: 123 µM
[1]; read-out: CFU IC50 ΔMGMT, stroma auto MSC
  IC50: 64 µM
[1]; read-out: CFU IC90 ΔMGMT, stroma Allo MSC
  IC90: > 300 µM
[1]; read-out: CFU IC90 ΔMGMT, stroma FN
  IC90: > 300 µM
[1]; read-out: CFU IC90 ΔMGMT, stroma auto MSC
  IC90: > 300 µM
[1]; allo MSC and auto MSC (n=4)
  average fold increase in the IC50 after exposure to BG: 5.2 fold
  increase in the IC90 after exposure to BG: > 9.8 fold
[1]; stroma Allo MSC
  fold increase in ΔMGMT/untransduced CFU IC50: 2.8 fold and 2.4 fold
  fold increase in ΔMGMT/untransduced CFU IC90: >6 fold and >5.3 fold
[1]; stroma FN
  fold increase in ΔMGMT/untransduced CFU IC90: >10.3 fold and >6 fold
[1]; stroma auto MSC
  fold increase in ΔMGMT/untransduced CFU IC50: 6.5 fold and 8.9 fold
  fold increase in ΔMGMT/untransduced CFU IC90: >10.3 fold and 17.7 fold
